Data published in patent publication US9492471B2, “Methods of treating a disease or disorder associated with Bruton'S Tyrosine Kinase” (Celgene Avilomics Research, Inc., priority 2013, dated 2016).
Read-outs that look alike come from different tables or passages of the source.

What was measured:
Assay in all cases: HotSpot kinase profiling
Assay type in all cases: biochemical
[1] = molecular target: T1, TYRO3/SKY (Homo sapiens, UniProt Q06418)
T1 construct: purchased Reaction Biology Corp
T1 sequence (Q06418 41-890): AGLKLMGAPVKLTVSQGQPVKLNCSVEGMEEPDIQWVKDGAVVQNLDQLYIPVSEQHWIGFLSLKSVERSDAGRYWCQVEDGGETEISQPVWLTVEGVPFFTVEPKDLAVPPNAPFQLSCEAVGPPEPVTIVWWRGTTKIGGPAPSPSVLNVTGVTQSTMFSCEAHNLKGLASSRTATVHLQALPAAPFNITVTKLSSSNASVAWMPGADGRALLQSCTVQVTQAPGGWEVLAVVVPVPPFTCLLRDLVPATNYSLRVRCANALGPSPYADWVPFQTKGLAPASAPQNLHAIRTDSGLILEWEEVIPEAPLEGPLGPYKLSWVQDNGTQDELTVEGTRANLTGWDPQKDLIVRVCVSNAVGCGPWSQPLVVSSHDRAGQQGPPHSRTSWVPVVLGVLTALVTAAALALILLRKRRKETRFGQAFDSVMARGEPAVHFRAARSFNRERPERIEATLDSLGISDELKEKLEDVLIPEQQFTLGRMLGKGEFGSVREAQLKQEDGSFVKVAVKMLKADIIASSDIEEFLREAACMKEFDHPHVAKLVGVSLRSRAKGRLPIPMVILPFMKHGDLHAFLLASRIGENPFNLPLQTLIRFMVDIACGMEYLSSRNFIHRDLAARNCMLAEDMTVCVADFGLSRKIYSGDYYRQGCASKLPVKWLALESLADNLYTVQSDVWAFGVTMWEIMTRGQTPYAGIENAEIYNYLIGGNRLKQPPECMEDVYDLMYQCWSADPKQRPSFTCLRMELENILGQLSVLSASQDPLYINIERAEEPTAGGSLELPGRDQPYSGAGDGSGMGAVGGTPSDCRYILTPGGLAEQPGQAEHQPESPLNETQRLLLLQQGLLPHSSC
Procedure, shortened: (§1)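 P81 filtration radiometric readout; 2 h incubation at room temperature; 0.1% phosphoric acid wash; DMSO negative control; % inhibition, mean of replicate runs.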

[2] = molecular target: T2, CK2a (Homo sapiens, UniProt P68400)
T2 construct: purchased Reaction Biology Corp
Procedure, shortened: as §1

[3] = molecular target: T3, FLT1/VEGFR1 (Homo sapiens, UniProt P17948)
T3 construct: purchased Reaction Biology Corp
Procedure, shortened: as §1

[4] = molecular target: T4, CLK2 (Homo sapiens, UniProt P49760)
T4 construct: purchased Reaction Biology Corp
Procedure, shortened: as §1

[5] = molecular target: T5, WEE1 (Homo sapiens, UniProt P30291)
T5 construct: purchased Reaction Biology Corp
Procedure, shortened: as §1

[6] = molecular target: T6, PKCzeta (Homo sapiens, UniProt Q05513)
T6 construct: purchased Reaction Biology Corp
T6 sequence (Q05513 1-592): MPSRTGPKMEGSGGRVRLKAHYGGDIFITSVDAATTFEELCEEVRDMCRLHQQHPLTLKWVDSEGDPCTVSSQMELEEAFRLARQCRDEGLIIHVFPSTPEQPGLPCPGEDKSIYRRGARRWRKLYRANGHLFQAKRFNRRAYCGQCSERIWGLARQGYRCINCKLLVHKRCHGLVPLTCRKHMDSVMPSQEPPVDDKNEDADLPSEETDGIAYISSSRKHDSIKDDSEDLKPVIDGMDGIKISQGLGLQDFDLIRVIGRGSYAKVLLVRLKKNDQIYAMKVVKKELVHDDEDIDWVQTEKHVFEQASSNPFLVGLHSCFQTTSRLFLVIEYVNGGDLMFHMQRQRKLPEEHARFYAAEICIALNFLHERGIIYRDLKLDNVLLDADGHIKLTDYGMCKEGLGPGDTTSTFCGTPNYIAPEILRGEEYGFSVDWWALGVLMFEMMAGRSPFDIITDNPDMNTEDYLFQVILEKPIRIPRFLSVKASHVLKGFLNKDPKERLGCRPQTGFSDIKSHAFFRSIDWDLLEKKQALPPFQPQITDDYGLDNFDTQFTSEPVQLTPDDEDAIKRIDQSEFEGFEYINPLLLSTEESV
Procedure, shortened: as §1

[7] = molecular target: T7, RSK2 (Homo sapiens, UniProt P51812)
T7 construct: purchased Reaction Biology Corp
Procedure, shortened: as §1

[8] = molecular target: T8, FMS (Homo sapiens, UniProt P07333)
T8 construct: purchased Reaction Biology Corp
Procedure, shortened: as §1

[9] = molecular target: T9, CK1g1 (Homo sapiens, UniProt Q9HCP0)
T9 construct: purchased Reaction Biology Corp
Procedure, shortened: as §1

[10] = molecular target: T10, PIM3 (Homo sapiens, UniProt Q86V86)
T10 construct: purchased Reaction Biology Corp
Procedure, shortened: as §1

[11] = molecular target: T11, TRKA (Homo sapiens, UniProt P04629)
T11 construct: purchased Reaction Biology Corp
Procedure, shortened: as §1

[12] = molecular target: T12, NEK4 (Homo sapiens, UniProt P51957)
T12 construct: purchased Reaction Biology Corp
Procedure, shortened: as §1

[13] = read-out: % Enzyme Activity (relative to DMSO controls) Run 1
[14] = read-out: % Enzyme Activity (relative to DMSO controls) Run 2

T4 sequence (P49760 whole entry): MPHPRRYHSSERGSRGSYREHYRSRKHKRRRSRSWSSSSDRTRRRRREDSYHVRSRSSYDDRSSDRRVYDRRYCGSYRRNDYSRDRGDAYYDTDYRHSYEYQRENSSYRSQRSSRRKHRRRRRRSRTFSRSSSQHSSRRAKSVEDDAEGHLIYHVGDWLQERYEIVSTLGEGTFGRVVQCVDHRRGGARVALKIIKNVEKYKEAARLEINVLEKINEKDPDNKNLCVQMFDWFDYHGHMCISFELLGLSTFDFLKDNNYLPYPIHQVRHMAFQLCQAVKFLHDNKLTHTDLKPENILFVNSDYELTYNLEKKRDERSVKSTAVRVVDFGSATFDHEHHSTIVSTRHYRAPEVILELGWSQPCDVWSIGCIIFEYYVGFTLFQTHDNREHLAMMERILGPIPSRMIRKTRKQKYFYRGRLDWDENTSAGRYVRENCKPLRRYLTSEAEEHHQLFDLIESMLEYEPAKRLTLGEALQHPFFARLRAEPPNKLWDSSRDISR
T8 sequence (P07333 20-972): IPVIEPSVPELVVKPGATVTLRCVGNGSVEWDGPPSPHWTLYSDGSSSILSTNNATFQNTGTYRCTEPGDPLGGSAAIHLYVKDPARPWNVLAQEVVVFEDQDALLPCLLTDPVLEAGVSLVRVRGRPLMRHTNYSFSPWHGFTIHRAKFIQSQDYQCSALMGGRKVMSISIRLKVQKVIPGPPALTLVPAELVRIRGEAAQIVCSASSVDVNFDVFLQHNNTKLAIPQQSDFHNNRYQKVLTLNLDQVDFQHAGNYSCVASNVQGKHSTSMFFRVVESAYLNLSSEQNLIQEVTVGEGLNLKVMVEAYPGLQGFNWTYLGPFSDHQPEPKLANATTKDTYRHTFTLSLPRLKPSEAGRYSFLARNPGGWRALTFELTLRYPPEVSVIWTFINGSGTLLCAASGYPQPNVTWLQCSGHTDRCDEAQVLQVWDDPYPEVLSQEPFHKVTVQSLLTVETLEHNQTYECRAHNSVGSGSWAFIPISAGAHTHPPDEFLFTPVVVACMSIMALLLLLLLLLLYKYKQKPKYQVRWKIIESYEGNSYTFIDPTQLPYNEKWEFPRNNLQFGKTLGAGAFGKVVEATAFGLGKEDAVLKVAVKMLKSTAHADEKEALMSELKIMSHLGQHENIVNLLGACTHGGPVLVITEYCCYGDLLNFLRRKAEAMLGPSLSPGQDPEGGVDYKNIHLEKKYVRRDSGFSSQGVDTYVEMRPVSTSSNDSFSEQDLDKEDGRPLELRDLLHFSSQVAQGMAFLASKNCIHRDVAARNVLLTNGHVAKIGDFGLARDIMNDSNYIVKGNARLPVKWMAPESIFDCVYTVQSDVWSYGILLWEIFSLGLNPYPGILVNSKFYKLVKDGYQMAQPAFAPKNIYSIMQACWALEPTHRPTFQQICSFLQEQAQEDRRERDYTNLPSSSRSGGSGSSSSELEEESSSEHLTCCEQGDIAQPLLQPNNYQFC
T12 sequence (P51957 whole entry): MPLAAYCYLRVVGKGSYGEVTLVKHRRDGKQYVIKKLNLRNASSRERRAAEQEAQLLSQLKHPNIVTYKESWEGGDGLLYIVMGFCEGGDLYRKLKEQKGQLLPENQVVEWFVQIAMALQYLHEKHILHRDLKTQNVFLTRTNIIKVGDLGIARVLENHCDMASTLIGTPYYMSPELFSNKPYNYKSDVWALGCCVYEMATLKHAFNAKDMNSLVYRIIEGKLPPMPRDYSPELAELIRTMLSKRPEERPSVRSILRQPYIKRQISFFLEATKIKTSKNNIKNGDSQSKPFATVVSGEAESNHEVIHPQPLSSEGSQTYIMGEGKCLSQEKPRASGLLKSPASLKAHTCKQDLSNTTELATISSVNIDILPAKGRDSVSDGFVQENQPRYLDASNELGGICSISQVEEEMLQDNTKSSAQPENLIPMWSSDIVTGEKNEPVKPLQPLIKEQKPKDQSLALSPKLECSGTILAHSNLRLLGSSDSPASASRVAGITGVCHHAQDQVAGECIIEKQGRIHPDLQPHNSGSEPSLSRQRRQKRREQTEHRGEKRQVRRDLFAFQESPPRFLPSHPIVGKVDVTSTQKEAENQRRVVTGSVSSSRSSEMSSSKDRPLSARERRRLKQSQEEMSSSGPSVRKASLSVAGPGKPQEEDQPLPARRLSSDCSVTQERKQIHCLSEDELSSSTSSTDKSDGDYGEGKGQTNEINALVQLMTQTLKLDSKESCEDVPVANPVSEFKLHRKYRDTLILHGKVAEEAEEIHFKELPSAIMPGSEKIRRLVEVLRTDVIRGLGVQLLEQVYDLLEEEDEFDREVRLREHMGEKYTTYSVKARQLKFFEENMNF
T11 sequence (P04629 33-796): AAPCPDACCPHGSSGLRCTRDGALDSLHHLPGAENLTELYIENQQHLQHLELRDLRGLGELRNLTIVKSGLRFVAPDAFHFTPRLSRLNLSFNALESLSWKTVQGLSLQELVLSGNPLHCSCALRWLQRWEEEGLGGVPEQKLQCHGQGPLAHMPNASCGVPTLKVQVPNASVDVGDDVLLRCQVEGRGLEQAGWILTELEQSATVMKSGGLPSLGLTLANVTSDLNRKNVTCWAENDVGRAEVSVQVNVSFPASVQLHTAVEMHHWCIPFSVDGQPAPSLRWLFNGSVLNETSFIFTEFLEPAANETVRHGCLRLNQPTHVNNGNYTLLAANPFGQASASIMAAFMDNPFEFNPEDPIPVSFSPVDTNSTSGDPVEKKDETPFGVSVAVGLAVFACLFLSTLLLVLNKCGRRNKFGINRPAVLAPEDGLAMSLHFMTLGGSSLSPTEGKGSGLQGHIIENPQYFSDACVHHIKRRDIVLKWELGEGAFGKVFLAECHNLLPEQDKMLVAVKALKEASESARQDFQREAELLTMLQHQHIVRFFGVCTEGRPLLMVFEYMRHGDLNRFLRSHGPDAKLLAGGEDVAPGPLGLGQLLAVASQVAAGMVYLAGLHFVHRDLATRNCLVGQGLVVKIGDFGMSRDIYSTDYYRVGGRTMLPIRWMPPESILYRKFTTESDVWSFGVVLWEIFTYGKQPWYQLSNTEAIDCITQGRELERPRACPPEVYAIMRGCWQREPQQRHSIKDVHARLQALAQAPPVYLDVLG
T7 sequence (P51812 whole entry): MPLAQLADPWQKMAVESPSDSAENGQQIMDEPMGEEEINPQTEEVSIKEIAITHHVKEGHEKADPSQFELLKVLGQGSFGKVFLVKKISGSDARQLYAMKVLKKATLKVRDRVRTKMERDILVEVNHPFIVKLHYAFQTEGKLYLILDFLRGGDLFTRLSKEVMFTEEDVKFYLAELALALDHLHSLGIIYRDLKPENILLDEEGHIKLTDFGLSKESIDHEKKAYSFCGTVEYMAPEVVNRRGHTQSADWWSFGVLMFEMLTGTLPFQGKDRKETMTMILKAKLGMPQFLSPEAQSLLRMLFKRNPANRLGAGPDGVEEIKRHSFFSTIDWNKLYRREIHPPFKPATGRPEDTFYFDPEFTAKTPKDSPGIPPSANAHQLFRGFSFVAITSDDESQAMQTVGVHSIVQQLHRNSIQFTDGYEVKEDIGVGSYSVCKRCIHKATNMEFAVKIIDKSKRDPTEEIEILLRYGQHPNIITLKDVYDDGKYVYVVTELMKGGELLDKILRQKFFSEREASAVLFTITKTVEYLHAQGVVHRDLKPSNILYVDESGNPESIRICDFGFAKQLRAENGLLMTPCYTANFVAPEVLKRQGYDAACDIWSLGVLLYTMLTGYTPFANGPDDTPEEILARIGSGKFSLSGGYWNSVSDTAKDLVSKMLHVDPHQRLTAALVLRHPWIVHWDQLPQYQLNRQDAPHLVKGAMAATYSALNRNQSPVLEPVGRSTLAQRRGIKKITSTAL
T5 sequence (P30291 whole entry): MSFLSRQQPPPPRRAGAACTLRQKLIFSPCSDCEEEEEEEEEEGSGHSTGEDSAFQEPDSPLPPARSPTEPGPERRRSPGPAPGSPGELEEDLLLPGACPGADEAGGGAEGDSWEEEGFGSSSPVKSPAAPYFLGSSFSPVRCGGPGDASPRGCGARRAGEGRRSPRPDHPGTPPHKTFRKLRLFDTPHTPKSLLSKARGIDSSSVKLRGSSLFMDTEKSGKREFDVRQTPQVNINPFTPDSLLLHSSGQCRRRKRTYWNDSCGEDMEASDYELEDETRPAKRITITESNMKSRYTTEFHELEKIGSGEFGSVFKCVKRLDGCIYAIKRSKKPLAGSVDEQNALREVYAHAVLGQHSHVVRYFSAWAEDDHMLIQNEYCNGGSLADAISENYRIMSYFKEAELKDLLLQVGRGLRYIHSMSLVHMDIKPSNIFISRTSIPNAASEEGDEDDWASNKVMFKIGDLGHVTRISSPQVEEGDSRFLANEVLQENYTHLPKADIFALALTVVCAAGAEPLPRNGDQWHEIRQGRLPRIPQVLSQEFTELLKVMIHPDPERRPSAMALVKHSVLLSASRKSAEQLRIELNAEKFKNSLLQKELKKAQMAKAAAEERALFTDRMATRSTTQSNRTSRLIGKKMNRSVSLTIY

Compound `C=CC(=O)Nc1cccc(Nc2nc(Nc3ccc(OCCOC)c(F)c3)ncc2F)c1` [Compound 2] has an inhibition at 3 µM [1] of 4.03%, a remaining activity at 3 µM [1, 13] of 95.1% and a remaining activity at 3 µM [1, 14] of 96.8%. It also gave an inhibition at 3 µM [2] of -20.1%, a remaining activity at 3 µM [2, 13] of 117% and a remaining activity at 3 µM [2, 14] of 123%. It also gave an inhibition at 3 µM [3] of 18.6%, a remaining activity at 3 µM [3, 13] of 83.6% and a remaining activity at 3 µM [3, 14] of 79.2%. It also gave an inhibition at 3 µM [4] of 49.6%, a remaining activity at 3 µM [4, 13] of 50.2% and a remaining activity at 3 µM [4, 14] of 50.6%. The inhibition at 3 µM [5] was 26%, the remaining activity at 3 µM [5, 13] was 73.1% and the remaining activity at 3 µM [5, 14] was 74.9%. It also gave an inhibition at 3 µM [6] of 2.52%, a remaining activity at 3 µM [6, 13] of 99.8% and a remaining activity at 3 µM [6, 14] of 95.2%. For the same compound, the inhibition at 3 µM [7] was 16.6%, the remaining activity at 3 µM [7, 13] was 82.6% and the remaining activity at 3 µM [7, 14] was 84.3%. The inhibition at 3 µM [8] was 34.1%, the remaining activity at 3 µM [8, 13] was 64.5% and the remaining activity at 3 µM [8, 14] was 67.3%. It also gave an inhibition at 3 µM [9] of 10.5%, a remaining activity at 3 µM [9, 13] of 88.8% and a remaining activity at 3 µM [9, 14] of 90.3%. It also gave an inhibition at 3 µM [10] of -1.83%, a remaining activity at 3 µM [10, 13] of 104% and a remaining activity at 3 µM [10, 14] of 100%. It also gave an inhibition at 3 µM [11] of -17.7%, a remaining activity at 3 µM [11, 13] of 117% and a remaining activity at 3 µM [11, 14] of 118%. For the same compound, the inhibition at 3 µM [12] was 13.5%, the remaining activity at 3 µM [12, 13] was 84.6% and the remaining activity at 3 µM [12, 14] was 88.3%.
